# Molecular target: Carbonic anhydrase 12 (Homo sapiens, UniProt O43570)
# Sequence (O43570 whole entry): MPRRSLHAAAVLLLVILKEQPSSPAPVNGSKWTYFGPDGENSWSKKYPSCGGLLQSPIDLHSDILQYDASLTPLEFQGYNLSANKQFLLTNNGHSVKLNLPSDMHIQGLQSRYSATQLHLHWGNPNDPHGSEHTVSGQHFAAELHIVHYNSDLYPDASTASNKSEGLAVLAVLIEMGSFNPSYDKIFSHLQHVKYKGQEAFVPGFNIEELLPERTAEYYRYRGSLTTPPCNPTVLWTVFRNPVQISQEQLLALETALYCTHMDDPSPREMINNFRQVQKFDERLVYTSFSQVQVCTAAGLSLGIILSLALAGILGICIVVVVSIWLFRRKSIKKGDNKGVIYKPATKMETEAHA
row,Ki [nM],SMILES
1,37,CNc1ccc(S(N)(=O)=O)cc1
2,58,NNc1ccccc1S(N)(=O)=O
3,3.4,N[S+]([O-])c1ccc(S(=O)(=O)Nc2cccc3c(Cl)c[nH]c23)cc1 (stereo not given)
4,11,CN(N)c1ccc(S(N)(=O)=O)cc1
5,3.5,Nc1ccc(S(=O)(=O)NCc2ccc(S(N)(=O)=O)cc2)cc1
6,11,Nc1ccc(S(N)(=O)=O)cc1I
7,85,Nc1ccc(S(=O)(=O)Nc2nnc(S(N)(=O)=O)s2)cc1
8,36,NS(=O)(=O)c1nnc(-c2ccccc2Cl)s1
9,3.4,Nc1nccc(Nc2ccc(S(N)(=O)=O)cc2)n1
10,0.85,Nc1ccccc1S(N)(=O)=O
11,20,Nc1ccc(S(N)(=O)=O)cc1Br
12,4,Cn1nc(S(N)(=O)=O)sc1=N
13,55,NS(=O)(=O)c1ccc(CCO)cc1
14,1.1,Nc1ccc(S(N)(=O)=O)cc1F
15,220,NS(=O)(=O)c1ccc(CO)cc1
16,3.1,Nc1ccc(S(N)(=O)=O)cc1Cl
17,4.5,Nc1ccc(S(=O)(=O)NCCc2ccc(S(N)(=O)=O)cc2)cc1
18,34,NS(=O)(=O)c1ccc(C(=O)O)cc1 [CARZENIDE]
19,0.3,NCc1ccc(S(N)(=O)=O)cc1 [MAFENIDE]
20,1.8,Cc1ccc(S(N)(=O)=O)cc1 [P-TOLUENESULFONAMIDE]
